Results from US20220133753A1, “COMPOSITIONS AND METHODS USEFUL FOR TREATING DISEASES CHARACTERIZED BY INSUFFICIENT PANTOTHENATE KINASE ACTIVITY” (Comet Therapeutics, Inc., priority 2016, published 2022).

Legend:
[1] = system: MCAD patient fibroblast cell lines; test: Mitochondrial stress test (Seahorse), reserve capacity of MCAD patient fibroblasts; format: cell-based, human; settings: all cell lines, data not shown
Source text: Medium-chain acyl-CoA dehydrogenase (MCAD) deficiency is a condition in which the body's capacity to break down fats with medium chain lengths is impaired, caused by mutations in the ACADM gene, which can lead to hypoglycaemia, and liver dysfunction. Left untreated, it can lead to seizures, coma and other serious health problems, with acute symptoms often preceded by extended periods of fasting or an infection with vomiting. Impaired metabolism were observed through functional measurements of respiration using a Seahorse XF Analyzer, where oxygen consumption rate (OCR) reflects oxidative respiration.
A study was performed to test the Rescue potential of S-acetyl-4′-phosphopantetheine in primary patient fibroblast model of MCAD deficiency. MCAD patient fibroblast cell lines (genotyped as containing homozygous K304E mutations in ACADM) were subject to a mitochondrial stress test according to standard protocol with a cell seeding density of 30 k cells/well (n=2). Rescue potential was assessed by increase in reserve capacity: defined as the difference between basal and maximal OCR, controlled by subtracting values for non-mitochondiral respiration (after rotenone treatment). The study was performed in two replicates.

[2] = system: primary human fibroblasts from healthy controls, MCAD deficiency and PA deficiency patients; test: Mitochondrial stress test (Seahorse), basal OCR of primary fibroblasts; format: cell-based; settings: data not shown
Source text: A study was thus performed to test the ability of S-acetyl-(S)-4′-phosphopantetheine to facilitate increased basal oxidative respiration in primary fibroblast cultures from patients diagnosed with MCAD deficiency and PA deficiency. Impaired metabolism were observed through functional measurements of respiration using a Seahorse XF Analyzer, where oxygen consumption rate (OCR) reflects oxidative respiration.
Patient derived cell lines were subject to a mitochondrial stress test according to standard protocol with a cell seeding density of 30 k cells/well (n=2) in glucose free media. After incubation with various concentrations of S-acetyl-4′-phosphopantetheine or vehicle for 24 h, rescue potential was assessed by increase in basal OCR (average of six readings between 30-70 min), relative to control: basal OCR from vehicle treatment was set to 1.0. […] Experiment was performed in two replicates: systematically outlying values caused by seeding errors, port failures, or values within background were excluded from analysis.

[3] = Parallel Artificial Membrane Permeability Assay (PAMPA); format: in vitro ADME; settings: PAMPA
Procedure: FIG. 13E is a depiction of a Parallel Artificial Membrane Permeability Assay (PAMPA). Experiments were performed according to the manufacturer's instructions. In this assay, a two-well system is separated by an artificial lipid-oil-lipid membrane (shown in grey). To the lower (donor) compartment, a compound dissolved in buffer is added, the upper (acceptor) compartment contains only buffer. After 5 hours of incubation, concentration of compound is measured in both wells to assess its propensity to diffuse over the artificial membrane. The permeability was calculated according to the manufacturer's instruction (formulas are depicted to the right). Compounds that are below the assay threshold are predicted to be unable to pass membranes passively, whereas compounds above the threshold are able to pass membranes passively. Ceq=Equilibrium Concentration, CD=Concentration in donor well, VD=Volume of donor well (0.3 ml), CA=Concentration in acceptor well, VA=Volume of acceptor well (0.2 ml), P=Permeability, S=Membrane area (0.3 cm2), t=Incubation time (18000 s).
PAMPA assay procedure: Parallel Artificial Membrane Permeability Assay (PAMPA) was performed and processed according to manufacturer's instructions (BD Gentest Pre-coated PAMPA plates). Briefly, two superimposed wells are separated by an artificial lipid-oil-lipid membrane. The compound of interest (PPanSH, CoA, caffeine, amiloride) was added to the bottom well in phosphate-buffered saline, whereas the top well was filled with phosphate-buffered saline alone. After 5 h of incubation at room temperature, concentrations of the different compounds were measured using UV-VIS absorption spectroscopy (BMG Labtech SPECTROstar Omega) along with calibration curves for all compounds. The permeability efficiency was further calculated according to manufacturer's instructions. For caffeine and amiloride, four replicates were performed; for PPanSH and CoA twelve replicates were performed. Caffeine and amiloride were obtained from Sigma.

[4] = system: conversion of CoA into 4′-phosphopantetheine in serum; format: biochemical; settings: serum pre-treated with the agent, CoA 10 μM, 3 hours
Procedure: (PpanSH=4′-phosphopantetheine; in all panels CoA was added to the indicated sera with a final starting concentration of 10 μM measured by HPLC analysis and percentages relative to CoA incubation for 3 hours in PBS (=100%) are indicated on the y-axis).
Serum from various species (fetal calf, mouse and human) was pre-conditioned, and CoA conversion into 4′-phosphopantetheine was assessed. First, the effect of heat inactivation of the serum was studied. […] Second, the conversion of CoA to 4′-phosphopantetheine requires the hydrolysis of a phosphoanhydride bond, which is typically catalyzed by (pyro)phosphatases or hydrolases. The majority of enzymes in the known family of (pyro)phosphatases and hydrolases depend on metal ions for their activity. To test these candidates, EDTA was added to serum to chelate metal ions.

Drosophila S2 cells = test: HoPan treatment of Drosophila S2 cells in combination with CoA or 4′-phosphopantetheine; format: cell-based; settings: HoPan alone
Procedure: HoPan treatment of Drosophila S2 Cell in combination with CoA or 4′-phosphopantetheine treatment: Drosophila Schneider's S2 cells were maintained at standard conditions as explained above. Cells in the exponential phase of growth were used for all the experiments. Different indicated concentrations of CoA or 4′-phosphopantetheine (deuterium labelled PPanSH(D4) or unlabeled PPanSH) were added to S2 cells either in the presence or absence of 0.5 mM HoPan (Zhou Fang Pharm Chemical, China) for 48 h. Similarly, Drosophila S2 cells were treated with different concentrations of PPanSH(D4) at either 25° C. or 4° C. and cells were then harvested at various time points to access transport of PPanSH(D4). Stable isotope labelled PPanSH containing 4 deuterium atoms was purchased from Syncom (Groningen, The Netherlands) as a sodium salt (chemical structure is provided in FIG. 13A). As a read out cell count, intracellular total CoA and PPanSH levels (both labelled and unlabeled levels wherever appropriate) and histone acetylation levels were analyzed as explained below.
Drosophila S2 Cell Immunofluorescence Staining: For immunofluorescence Drosophila S2 cells were seeded on Poly-L-Lysine coated (Sigma-Aldrich) glass microscope slides and allowed to settle for 45 min. Cells were fixed with 3.7% formaldehyde (Sigma Aldrich) for 20 min, washed briefly with PBS+0.1% Triton-X-100 (Sigma Aldrich) and permeabilized with PBS+0.2% Triton-X-100 for 20 min. The slides were incubated in primary antibody (rabbit anti-AcLys, Cell Signaling Cat No: 9441, 1:500) to visualize histone acetylation levels in PBS+0.1% Triton-X-100 overnight and after an additional washing step in PBS+0.1% Triton-X-100 they were incubated in secondary goat anti-rabbit-Alexa488 antibody (Molecular Probes) for two hours at room temperature (RT). F-actin was detected with Rhodamin-Phalloidin (20 U/ml)(Invitrogen) and DNA by staining with DAPI (0.2 ug/ml) (Thermo Scientific). Finally the samples were mounted in 80% glycerol and analyzed using a Leica fluorescence microscope with Leica software. Adobe Photoshop and Illustrator (Adobe Systems Incorporated, San Jose, Calif., USA) were used for image assembly.

HEK293 cells = test: HoPan treatment of mammalian HEK293 cells in combination with CoA or 4′-phosphopantetheine; format: cell-based, human; settings: HoPan alone
Procedure: HoPan treatment of mammalian HEK293 Cells in combination with CoA and 4′-phosphopantetheine treatment: HEK293 cells were maintained in dMEM (Invitrogen) supplemented with 10% fetal calf serum (Gibco) and antibiotics (penicillin/streptomycin, Invitrogen). For HoPan treatment, cells were cultured in custom made dMEM without vitamin B5 (Thermo Scientific) supplemented with dialyzed FCS (Thermo Scientific). CoA or PPanSH was added to HEK293 cells for the final concentration of 25 uM, either in the presence or absence of HoPan (0.5 mM) for 4 days, followed by analysis for phenotype and rescue efficiency of CoA and PPanSH.
Western blot analysis and Antibodies: For Western blot analysis, cells were collected and washed with phosphate buffer saline (PBS), followed by centrifugation. The cells were lysed and sonicated in 1X Laemmli Sample Buffer and boiled for 5 min with 5% β-mercaptoethanol (Sigma). Protein content was determined using DC protein assay (BioRad). Equal amounts of protein were loaded on a 10 or 12.5% SDS-PAGE gel, transferred onto PVDF membranes and blocked with 5% milk in PBS/0.1% Tween, followed by overnight incubation with primary antibodies. The primary antibodies used were: rabbit-anti dPANK/fbl, 1:4000 Eurogentec custom made as described previously5, mouse anti-tubulin (Sigma Aldrich Cat no: T5168, 1:5000), anti-acetyl-Histone3 (Active Motif Cat no: 39139, 1:2000), anti GAPDH (Fitzgerald Cat no: 10R-G109a, 1:10000), rabbit anti COASY (Abcam Cat no: AB129012, 1:1000). Appropriate HRP-conjugated secondary antibodies (Amersham) were used and detection was performed using enhanced chemi-luminescence (Pierce cat nog: 32106) and Amersham hyperfilm (GE Healthcare). Band intensities were quantified with Image-studio software.

[5] = system: Drosophila w1118 control fly line; test: Drosophila HoPan toxicity and CoA rescue experiment (eclosion); format: in vivo; settings: HoPan in the food during development
Source text: Drosophila HoPan Toxicity and CoA Rescue Experiment: One week old w1118 flies (in the ratio 10 females and 5 males) were kept in vials containing standard fly food with or without HoPan and CoA at indicated concentrations. The flies were allowed to lay eggs for 2 days, after which the adults were discarded. The resulting offspring were allowed to develop. The numbers of flies which eclosed were counted to evaluate HoPan toxicity and CoA rescue efficiency.

## C=C(C)[C@H]1Cc2c(ccc3c2O[C@@H]2COc4cc(OC)c(OC)cc4[C@@H]2C3=O)O1 [Rotenone]
[1]
  cell line response to positive control: generated expected profiles of ETC inhibition
[2]
  cell line response to positive control: generated expected profiles

## N=C(N)NC(=O)c1nc(Cl)c(N)nc1N [amiloride]
[3]
  membrane permeation (PAMPA): poorly permeating molecule

## Cn1c(=O)c2c(ncn2C)n(C)c1=O [caffeine]
[3]
  membrane permeation (PAMPA): well-permeating compound

## c1ccc([C@H]2CN3CCSC3=N2)cc1 [Levamisole, levamisole]
[4]
  effect on conversion (degradation) of CoA into 4′-phosphopantetheine in serum: only mild or no inhibition

## Nc1ncnc2c1ncn2[C@@H]1O[C@H](COP(=O)(O)OP(=O)(O)O)[C@@H](O)[C@H]1O [ADP]
[4]
  effect on conversion (degradation) of CoA into 4′-phosphopantetheine in serum: competitively blocked the conversion

## CC(C)(CO)[C@@H](O)C(=O)NCCCC(=O)O [HoPan, Hopantenate]
Drosophila S2 cells
  cell count of S2 cells: induced a decrease in cell count
  histone acetylation levels of S2 cells: induced a decrease
Drosophila S2 cells; S2 cells, HPLC
  intracellular CoA levels: significantly reduced
  intracellular levels of 4′-phosphopantetheine: reduced levels of 4′-phosphopantetheine
HEK293 cells; HEK293 cells, HPLC
  intracellular CoA levels: significantly reduced
HEK293 cells
  cell count of HEK293 cells: decreased cell count
  histone acetylation of HEK293 cells: impaired histone acetylation
[5]
  eclosion rate: decreased
  larval lethality: larval lethality was induced

## Cc1ccc(C(=O)Nc2ccc(S(=O)(=O)O)c3cc(S(=O)(=O)O)cc(S(=O)(=O)O)c23)cc1NC(=O)c1cccc(NC(=O)Nc2cccc(C(=O)Nc3cc(C(=O)Nc4ccc(S(=O)(=O)O)c5cc(S(=O)(=O)O)cc(S(=O)(=O)O)c45)ccc3C)c2)c1 [suramin]
[4]
  effect on conversion (degradation) of CoA into 4′-phosphopantetheine in serum: able to inhibit

## O=C(O)CN(CCN(CC(=O)O)CC(=O)O)CC(=O)O [EDTA]
[4]
  effect on conversion (degradation) of CoA into 4′-phosphopantetheine in serum: completely prevented the formation of 4′-phosphopantetheine

## Nc1ncnc2c1ncn2[C@@H]1O[C@H](COP(=O)(O)OP(=O)(O)OP(=O)(O)O)[C@@H](O)[C@H]1O [ATP]
[4]
  effect on conversion (degradation) of CoA into 4′-phosphopantetheine in serum: competitively blocked the conversion

## [F-].[Na+] [sodium fluoride, Sodium fluoride]
[4]
  effect on conversion (degradation) of CoA into 4′-phosphopantetheine in serum: only mild or no inhibition

## O=S(=O)(O)c1cc(N=C=S)ccc1C=Cc1ccc(N=C=S)cc1S(=O)(=O)O [DIDS, 4,4′-diisothiocyanatostilbene-2,2′ disulphonic acid]
[4]
  effect on conversion (degradation) of CoA into 4′-phosphopantetheine in serum: able to inhibit
